# Data from ChEMBL document CHEMBL4041510, “Design, synthesis, and biological evaluation of structurally modified isoindolinone and quinazolinone derivatives as hedgehog pathway inhibitors” (Eur J Med Chem, 2017).
# Calls of active or inactive are those of the source. No cut-off for these calls is given here.
# Experiments:
# [1] = test system: NIH3T3; assay: Cytotoxicity against mouse NIH/3T3 cells assessed as cell viability by MTS assay; format: cell-based
# [2] = Inhibition of hedgehog signaling pathway in mouse NIH/3T3 cells measured after 24 hrs by Gli-dual luciferase reporter gene assay; format: cell-based; conditions: NIH3T3, 24 h
# [3] = Metabolic stability in human liver microsomes assessed as compound remaining at 1 uM preincubated for 5 mins followed by NADPH addition measured after 30 mins by LC-ESI/MS/MS analysis relative to control; format: ADME, microsome; conditions: read-out: Stability
# [4] = Metabolic stability in human liver microsomes assessed as compound remaining at 1 uM in absence of NADPH incubated for 5 mins by LC-ESI/MS/MS analysis relative to control; format: ADME, microsome; conditions: read-out: Stability
# [5] = Metabolic stability in human liver microsomes assessed as compound remaining at 1 uM in absence of UDPGA incubated for 5 mins by LC-ESI/MS/MS analysis relative to control; format: ADME, microsome; conditions: read-out: Stability
# [6] = Metabolic stability in human liver microsomes assessed as compound remaining at 1 uM preincubated for 5 mins followed by UDPGA addition measured after 30 mins by LC-ESI/MS/MS analysis relative to control; format: ADME, microsome; conditions: read-out: Stability
# [7] = species on record: Mus musculus; assay: Inhibition of hedgehog signaling pathway in mouse NIH/3T3 cells assessed as inhibition of hedgehog-induced Smo-EGFP ciliary translocation by DAPI staining based confocal microscopic analysis; format: cell-based
# [8] = Inhibition of hedgehog signaling pathway in mouse NIH/3T3 cells expressing wild type Smo assessed as reduction in Gli mRNA expression by RT-PCR method; format: cell-based; conditions: NIH3T3
# [9] = species on record: Mus musculus; assay: Inhibition of hedgehog signaling pathway expressed in mouse NIH/3T3 cells assessed as inhibition of hedgehog-induced Gli-2 accumulation at tip of primary cilia by DAPI staining based confocal microscopic analysis; format: cell-based
# [10] = species on record: Mus musculus; assay: Selectivity ratio of IC50 for hedgehog signaling pathway in mouse NIH/3T3 cells harboring Smo D477H mutant to IC50 for hedgehog signaling pathway in mouse NIH/3T3 cells expressing wild type Smo; format: cell-based
# [11] = Inhibition of hedgehog signaling pathway in mouse NIH/3T3 cells harboring Smo D477H mutant assessed as reduction in Gli mRNA expression by RT-PCR method; format: cell-based; conditions: NIH3T3
# [12] = species on record: Mus musculus; assay: Inhibition of hedgehog signaling pathway in Ptch deficient MEF assessed as downregulation of Gli-1 expression by Immunoblot analysis
SMILES,IC50 [2] [nM],Activity [1] [µM],other results
O=C1CC2(CCCC2)CC(=O)N1CCCCN1CCN(c2ncccn2)CC1 [BUSPIRONE],,,"remaining at 0.5 h, 1 µM [3]: 5.17%; remaining at 5 min, 1 µM [4]: 96.7%"
O=c1c2cccc(Cl)c2ncn1-c1ccc(N2CCOCC2)cc1,> 20000,> 20,
Cc1cc(=O)oc2cc(O)ccc12 [HYMECROMONE],,,"remaining at 5 min, 1 µM [5]: 92.2%; remaining at 0.5 h, 1 µM [6]: 0.46%"
COc1cccc(-c2cccc3c(=O)n(-c4ccc(N5CCOCC5)cc4)cnc23)c1,433,> 20,
Cc1c(C(=O)Nc2ccc(N3C[C@@H](C)O[C@@H](C)C3)nc2)cccc1-c1ccc(OC(F)(F)F)cc1 [SONIDEGIB],6,> 20,"inhibition [7]: Active; remaining at 0.5 h, 1 µM [3]: 68%; IC50 [8]: 4.4 nM; inhibition [9]: Active; remaining at 5 min, 1 µM [5]: 89.5%; Ratio IC50 [10]: 5.16; remaining at 5 min, 1 µM [4]: 99.7%; IC50 [11]: 22.7 nM; remaining at 0.5 h, 1 µM [6]: 88.4%"
C[C@@H]1CN(c2ccc(N3Cc4c(cccc4-c4cccnc4)C3=O)cn2)C[C@H](C)O1,7690,> 20,
O=c1c2cccc(-c3ccccc3)c2ncn1-c1ccc(N2CCOCC2)cc1,132,> 20,
C[C@@H]1CN(c2ccc(N3Cc4c(cccc4-c4ccc(OC(F)(F)F)cc4)C3=O)cn2)C[C@H](C)O1,1800,> 20,
O=c1c2cccc(-c3ccc(OC(F)(F)F)cc3)c2ncn1-c1ccc(N2CCOCC2)nc1,5410,> 20,
C[C@@H]1CN(c2ccc(N3Cc4c(cccc4-c4ccc(F)cc4F)C3=O)cn2)C[C@H](C)O1,1710,> 20,
C[C@@H]1CN(c2cc(-n3cnc4c(Cl)cccc4c3=O)ncn2)C[C@H](C)O1,1240,> 20,
O=c1c2cccc(Cl)c2ncn1-c1ccc(N2CCOCC2)nc1,15300,> 20,
CC1CCN(c2cc(-n3cnc4c(-c5ccc(OC(F)(F)F)cc5)cccc4c3=O)ncn2)CC1,7700,> 20,
O=c1c2cccc(-c3ccc(OC(F)(F)F)cc3)c2ncn1CCN1CCOCC1,6600,> 20,
O=c1c2cccc(-c3ccc(OC(F)(F)F)cc3)c2ncn1CCCn1ccnc1,5280,> 20,
O=c1c2cccc(Cl)c2ncn1-c1ccc(F)cc1,269,> 20,
O=c1c2cccc(-c3ccc(OC(F)(F)F)cc3)c2ncn1-c1ccc(N2CCOCC2)cc1,4520,> 20,
C[C@@H]1CN(c2cc(N3Cc4c(cccc4-c4ccc(OC(F)(F)F)cc4)C3=O)ncn2)C[C@H](C)O1,1140,> 20,
CS(=O)(=O)c1ccc(C(=O)Nc2ccc(Cl)c(-c3ccccn3)c2)c(Cl)c1 [VISMODEGIB],5,,inhibition [7]: Active; IC50 [8]: 14.4 nM; inhibition [9]: Active; Ratio IC50 [10]: 82.7; IC50 [11]: 1200 nM

# Further lines, with some results ahead:
IC50 [2] [nM],SMILES,Activity [1] [µM],other results
305,Cc1ccc(-c2cccc3c(=O)n(-c4ccc(N5C[C@@H](C)O[C@@H](C)C5)nc4)cnc23)cc1,> 20,
430,C[C@@H]1CN(c2ccc(-n3cnc4c(-c5ccc(S(C)(=O)=O)cc5)cccc4c3=O)cn2)C[C@H](C)O1,> 20,
196,COc1ccc(-c2cccc3c(=O)n(-c4ccc(N5C[C@@H](C)O[C@@H](C)C5)nc4)cnc23)cc1,> 20,
38,C[C@@H]1CN(c2ccc(-n3cnc4c(-c5ccccc5)cccc4c3=O)cn2)C[C@H](C)O1,> 20,"inhibition [7]: Active; remaining at 0.5 h, 1 µM [3]: 68.2%; IC50 [8]: 257 nM; inhibition [12]: Active; inhibition [9]: Active; remaining at 5 min, 1 µM [5]: 93.1%; Ratio IC50 [10]: 0.355; remaining at 5 min, 1 µM [4]: 83.7%; IC50 [11]: 91.1 nM; remaining at 0.5 h, 1 µM [6]: 91%"
118,C[C@@H]1CN(c2ccc(-n3cnc4c(-c5ccc(F)cc5)cccc4c3=O)cn2)C[C@H](C)O1,> 20,"inhibition [7]: Active; remaining at 0.5 h, 1 µM [3]: 76.3%; IC50 [8]: 114 nM; inhibition [12]: Active; inhibition [9]: Active; remaining at 5 min, 1 µM [5]: 83.2%; Ratio IC50 [10]: 2.16; remaining at 5 min, 1 µM [4]: 91.3%; IC50 [11]: 246 nM; remaining at 0.5 h, 1 µM [6]: 83.5%"
847,CC1CCN(c2ccc(-n3cnc4c(-c5ccc(OC(F)(F)F)cc5)cccc4c3=O)cn2)CC1,> 20,
159,C[C@@H]1CN(c2ccc(-n3cnc4c(-c5ccc(OC(F)(F)F)cc5)cccc4c3=O)cn2)C[C@H](C)O1,> 20,
196,C[C@@H]1CN(c2ccc(-n3cnc4c(-c5ccc(OC(F)(F)F)cc5)cccc4c3=O)nc2)C[C@H](C)O1,> 20,
439,C[C@@H]1CN(c2ccc(-n3cnc4c(-c5cccc6ccccc56)cccc4c3=O)cn2)C[C@H](C)O1,> 20,
7490,C[C@@H]1CN(c2ccc(-n3cnc4c(Cl)cccc4c3=O)cn2)C[C@H](C)O1,> 20,
44200,C[C@@H]1CN(c2cc(-n3cnc4c(-c5ccc(OC(F)(F)F)cc5)cccc4c3=O)ncn2)C[C@H](C)O1,> 20,
